Assay results published in patent publication US7842823B2, “Fluorogenic probes for reactive oxygen species” (The Regents of the University of California, priority 2005, dated 2010).

Key:
HEK cells [1] = assay: Confocal fluorescence imaging of H2O2 in live HEK cells; conditions: for cell viability during imaging: HEK cells after probe incubation and H2O2 treatment; for intracellular background fluorescence of the unreacted probe: live HEK cells, 5-10 μM probe, 5-10 min at 25° C., before H2O2; for intracellular fluorescence change upon addition of H2O2: probe-loaded live HEK cells, 10-100 μM H2O2
Experimental: (a) Fluorescence image of HEK cells incubated with 5 μM PF1 for 5 min at 25° C. (b) Fluorescence image of PF1-stained HEK cells treated with 100 μM H2O2 for 11 min at 25° C. Excitation was provided at 488 nm, and emission was collected in a window from 505 to 580 nm. Scale bar=27 μm.
(a) Fluorescence image of HEK cells incubated with 10 μM PR1 for 10 min at 25° C. (b) Fluorescence image of PR1-stained HEK cells treated with 100 μM H2O2 for 30 min at 25° C. Excitation was provided at 543 nm, and emission was collected in a window from 548 to 644 nm. Scale bar=18 μm.
HEK 293T cells were cultured in Dulbecco's Modified Eagle Medium (DMEM, Invitrogen, Carlsbad, Calif.) supplemented with 10% Fetal Bovine Serum (FBS, Invitrogen), glutamine (2 mM), and penicillin/streptomycin (50 μg/ml, Invitrogen). One day before imaging, cells were passed and plated on 18-mm glass coverslips coated with poly-L-lysine (50 μg/ml, Sigma, St. Louis, Mo.). Immediately before the experiments, cells were washed with PBS buffer, incubated with the probe in PBS, and imaged.
Confocal fluorescence imaging was performed with a Zeiss LSM510 META laser scanning microscope containing an Axioplan 2 MOT upright microscope and a 40× water-immersion objective lens. Excitation of PF1-loaded cells at 488 nm was carried out with an argon ion laser, and emission was collected in a window from 505 nm to 580 nm using a META detection system. Excitation of PR1-loaded cells at 543 nm was carried out with a HeNe laser, and emission was collected in a window from 548 nm to 644 nm using a META detector. PF1 or PR1 were incubated with live cell samples for 5 to 10 min. Addition of H2O2 (10 to 100 μM) to cell samples was performed directly on the microscope stage by bath application to the media.
The family of red-, green-, and blue-fluorescent reagents for the optical detection of H2O2 in living biological samples.

[2] = Spectroscopic properties under simulated physiological conditions; assay type: physicochemical; conditions: 20 mM HEPES buffer; for fluorescence of unreacted probe: pH 7, before H2O2
Experimental: (§1) Millipore water was used to prepare all aqueous solutions. All spectroscopic measurements were performed in 20 mM HEPES buffer, pH 7. Absorption spectra were recorded using a Varian Cary 50 spectrophotometer (Walnut Creek, Calif.). Fluorescence spectra were recorded using a Photon Technology International Quanta Master 4 L-format scanning spectrofluorometer (Lawrenceville, N.J.) equipped with an LPS-220B 75-W xenon lamp and power supply, A-1010B lamp housing with integrated igniter, switchable 814 photon-counting/analog photomultiplier detection unit, and MD5020 motor driver. Samples for absorption and fluorescence measurements were contained in 1-cm×1-cm quartz cuvettes (1.4- or 3.5-mL volume, Starna, Atascadero, Calif.).
(§2) The Peroxysensor reagents were evaluated under simulated physiological conditions (20 mM HEPES buffer, pH 7). […] FIG. 4, FIG. 5 and FIG. 6 show the fluorescence responses of PF1, PR1, and PX1, respectively, to H2O2.

[3] = Fluorescence response to various ROS (H2O2 selectivity); conditions: 20 mM HEPES, pH 7, 25° C.; for higher response for H2O2 over .OH: .OH from Fe2+ with H2O2; for higher response for H2O2 over .OtBu: .OtBu from Fe2+ with TBHP; for higher response for H2O2 over NO: NO delivered using SNOC
Experimental: (§3) FIG. 7 is the fluorescence response of 5 μM PF1 to various ROS (10 mM O2^−, 100 μM for all other ROS). .OH and .Ot-Bu were generated by reaction of Fe^2+ with H2O2 or tert-butyl hydroperoxide (TBHP), respectively. NO was delivered using S-nitrosocysteine (SNOC). Spectra were acquired in 20 mM HEPES, pH 7, and all data were obtained after incubation with the appropriate ROS at 25° C. for 1 h. Collected emission was integrated between 460 and 700 nm (λexc=450 nm).
FIG. 8 is the fluorescence response of 5 μM PR1 to various ROS (10 mM O2^−, 100 μM for all other ROS). .OH and .O^tBu were generated by reaction of Fe^2+ with H2O2 or tert-butyl hydroperoxide (TBHP), respectively. NO was delivered using S-nitrosocysteine (SNOC). Spectra were acquired in 20 mM HEPES, pH 7, and all data were obtained after incubation with the appropriate ROS at 25° C. for 30 min. Collected emission was integrated between 570 and 800 nm (λexc=560 nm).
as §3, with “FIG. 9” for “FIG. 7”, “of 10” for “of 5”, “μM PX1” for “μM PF1”, “between 370” for “between 460”, “and 600” for “and 700”, “nm (λexc=350” for “nm (λexc=450”
as §1
FIG. 7, FIG. 8 and FIG. 9 compare the relative reactivities of boronate-based PF1, PR1, and PX1, respectively, toward various ROS.

[4] = comparison probe; cited from earlier work
[5] = test system: embryonic rat hippocampal neurons (E18); assay: Fluorescence imaging of H2O2 in primary hippocampal neurons; assay type: cell-based
Experimental: Hippocampal primary cultures were prepared from embryonic day 18 (E18) rat embryos according to a previously reported protocol. Briefly, hippocampi were dissociated by treatment with trypsin for 20 min at 37° C. followed by washing. The neuronal cells were plated on glass coverslips (Carolina Biological, Burlington, N.C.) coated with poly-L-lysine (50 μg/ml, Sigma) and cultured in neurobasal medium supplemented with 2 mM Glutamax and 2% B-27 (Invitrogen). After 10 days in vitro, the cultures were washed with PBS, incubated with the probe in PBS, and imaged.
Finally, the successful use of the Peroxysensor probes for monitoring changes in intracellular H2O2 concentrations in mammalian cell lines using either confocal or two-photon microscopy led us to evaluate their utility in primary culture systems. […] Control neurons without PF1 and/or H2O2 treatment show no detectable fluorescence enhancements. These experiments confirm that PF1 can be used in living neurons to detect oxidative stress events.

HEK cells [6] = assay: Two-photon fluorescence imaging of H2O2 in live HEK cells; assay type: cell-based
Experimental: Two-photon excitation was provided at 704 nm, and emission was collected in a window from 420 to 500 nm. Scale bar=18 μm
Two-photon fluorescence imaging of PX1 was carried out using an inverted Zeiss LSM510 Axiovert 200M microscope with a NeoFLUAR 40x/1.3 NA oil-immersion objective lens. Samples were excited by 704-nm pulses from a mode-locked Ti:Sapphire laser (Tsunami, SpectraPhysics, 120-150 fs pulse width, 80 MHz repetition rate). The emission light was filtered with a 80-nm wide bandpass filter centered at 460 nm (460BP40, Chroma) and detected with the non-descanned detector (NDD) of the LSM510.
Alternative methods were explored for applying the blue-fluorescent PX1 reporter toward intracellular H2O2 detection, reasoning that its short ultraviolet excitation maximum (˜350 nm) would promote interfering absorbance, scattering, and background autofluorescence from native cellular species. […] Whereas one-photon fluorescence microscopy uses a single photon to excite a fluorophore into its excited state, two-photon fluorescence microscopy uses two photons of lower energy light to generate a fluorophore excited state. […] Control cells without probe give the same fluorescence response, establishing that the observed background signal is from endogenous cellular species.

[7] = Fluorescence response of the Peroxysensor probes to H2O2 in buffer; conditions: 20 mM HEPES buffer, pH 7; H2O2 addition
Experimental: as §1, §2

Row | SMILES | cell viability during imaging (HEK cells [1]) | intracellular background fluorescence of the unreacted probe (HEK cells [1]) | intracellular fluorescence change upon addition of H2O2 (HEK cells [1]) | fluorescence of unreacted probe [2] | higher response for H2O2 over .OH ([3]; 100 μM ROS) | higher response for H2O2 over .OtBu ([3]; 100 μM ROS) | higher response for H2O2 over NO ([3]; 100 μM ROS) | other results
1 | CC1(C)OB(c2ccc3c(c2)Oc2cc(B4OC(C)(C)C(C)(C)O4)ccc2N3)OC1(C)C [PR1, 3,7-Bis(pinacolatoboron)phenoxazine] | cells are viable throughout the experiments | virtually no background fluorescence | Striking increases in intracellular red fluorescence | non-fluorescent | > 200 fold | > 200 fold | > 200 fold | higher response for H2O2 over O2− ([3]; 10 mM O2−, 100 μM H2O2): > 1000 fold
2 | O=C(O)c1ccccc1C1c2cc(Cl)c(O)cc2Oc2cc(O)c(Cl)cc21 [DCFH, 2′,7′-dichlorodihydrofluorescein] |  |  |  |  |  |  |  | fluorescence increase by reaction with .OH or peroxynitrite (ONOO−) [4]: ca. 7000 fold; fluorescence increase upon addition of H2O2 [4]: 190 fold; fluorescence increase upon light-induced autoxidation [4]: 2000 fold; fluorescence increase with NO [4]: 150 fold; fluorescence increase with O2− [4]: 67 fold
3 | CC1(C)OB(c2ccc3c(c2)Oc2cc(B4OC(C)(C)C(C)(C)O4)ccc2C32OC(=O)c3ccccc32)OC1(C)C [PF1, 3′,6′-Bis(pinacolatoboron)fluoran] | cells are viable throughout the imaging experiments | negligible intracellular background fluorescence | prompt increases in intracellular green fluorescence | non-fluorescent | > 3 fold | > 15 fold |  | background fluorescence of the unreacted probe ([5]; 10 μM probe, 5 min at 25° C.): negligible background fluorescence; intracellular fluorescence change under simulated oxidative stress ([5]; 300 μM H2O2 for 30 min at 25° C.): notable increases in intracellular fluorescence
4 | CC1(C)OB(c2ccc3c(=O)c4ccc(B5OC(C)(C)C(C)(C)O5)cc4oc3c2)OC1(C)C [PX1, 3,6-Bis(pinacolatoboron)xanthone] |  |  |  | weak fluorescence |  |  | ca. 6 fold | intracellular background fluorescence of the unreacted probe (HEK cells [6]; live HEK cells, 10 μM probe, 2-3 min at 25° C., two-photon excitation 704 nm): minimal intracellular background fluorescence; intracellular fluorescence change upon addition of H2O2 (HEK cells [6]; probe-stained HEK cells, 100 μM H2O2, two-photon excitation 704 nm): Prompt increases in intracellular blue fluorescence; emission maximum of unreacted probe ([2]; pH 7): 400 nm; ultraviolet absorption maximum ([2]; pH 7): 350 nm; extinction coefficient ε at absorption maximum ([2]; pH 7, 350 nm): 4700 M⁻¹ cm⁻¹; increase in integrated fluorescence intensity (dynamic range) upon reaction with H2O2 [7]: 52 fold; higher response for H2O2 over tert-butyl hydroperoxide (TBHP) ([3]; 100 μM ROS): > 100 fold
